Values of other authors in US8907090B2, “Processes for preparing different forms of (S)-(+)-Clopidogrel bisulfate” (Cadila Healthcare Limited, priority 2003, dated 2014).

Tests used:
platelet aggregation = conditions: comparison of enantiomers
[1] = comparison of enantiomers

| Compound | antiaggregant platelet activity (platelet aggregation) | tolerance [1] |
| --- | --- | --- |
| COC(=O)[C@H](c1ccccc1Cl)N1CCc2sccc2C1 (single isomer, unassigned) [dextrorotatory enantiomer] | excellent antiaggregant platelet activity |  |
| COC(=O)C(c1ccccc1Cl)N1CCc2sccc2C1 (single isomer, unassigned) [levorotatory enantiomer] | less active | less tolerated |
